Data from patent US5843925A, “Methods for inhibiting angiogenesis, proliferation of endothelial or tumor cells and tumor growth” (American Cyanamid Company, priority 1994, dated 1998).
Converted amounts (≈) assume the structure as drawn. Where a name gives a salt, the structure may show the parent alone.

Tests used:
[1] = system: A2780S; experiment: Antiproliferative activity in human tumor cell lines (A2780S); assay type: cell-based; conditions: A2780S ovarian tumor cell line
Description: (§1) PROTOCOLS 1, 2, and 3 are described in greater detail hereinbelow. In general, according to PROTOCOLS 1 and 2, the target ABAE and/or Human Tumor cells are exposed to the compound of Formula I for 48 hours. PROTOCOL 3 exposes ABAE cells to the compounds for 4 days. A detailed description of the protocol is as follows:
(§2) The antiproliferative activity of the compounds of Formula I of the present invention is evaluated in a panel comprised of human tumor cell lines and an adult bovine aortic endothelial cell line (ABAE). The human tumor cell lines are from
(§3) Cultures are renewed after 20 passages with cells from a fresh stock of batch-frozen early passage cells. Cell lines are routinely checked for mycoplasma contamination (Genprobe). In a laminar flow hood, cells (1-5×10^4) are plated into 96-well microtiter plates in a volume of 0.1 ml/well with a bulk microtiter dispenser (Denley). […] Compounds are added using a Tomtec dispenser which simultaneously dispenses from one 96-well plate, containing the drug dilutions, to the plates containing the cells. After two days of continuous drug exposure, 50% cold trichloroacetic acid (TCA) is added to 10% final concentration to fix the cells, and after 60 minutes at 4° C., the TCA is aspirated and the plates are washed 5 times with deionized water using a microtiter plate washer. […] A 0.4% solution of the dye, sulforhodamine B, in […] is added to the plates, and the plates are washed 5 times with 1% glacial acetic acid using the automatic plate washed. The bound stain is solubilized with 0.1 ml of 10 mM Tris base. The optical densities are read from an automatic spectrophotometric plate reader (Dynatech) directly to a main frame computer (VAX 8600).
(§4) Positive controls, that include standard chemotherapeutic drugs (i.e., adriamycin, cisplatin, etc.), are included in every experiment.
(§5) Background optical density measurements (complete media-cells, and complete media+drug-cells) are automatically subtracted from the appropriate control and test wells. Mean values and standard errors are determined from duplicate wells. A measure is also made of the optical density at time when the drugs are added. The number of cells after treatment (P), as % of control, is calculated for every concentration of drug, as follows: [formula] wherein: T is optical density measurement for treated cells after 48 hours;
(§6) C is optical density measurement for untreated cells after 48 hours;
(§7) Co is optical density measurement for cells at the time of drug addition.
(§8) IC50 of growth inhibition is calculated from the sets of P values using the RS-1 data package (BBN Software).
(§9) Antiproliferative Activity in Human Tumor Cell Lines
(§10) The antiproliferative activity of the compounds of Formula I is evaluated in the panel comprised of human tumor cell lines as listed in PROTOCOL 1. This assay is a slight modification of PROTOCOL 1. The modifications include:
(§11) 1) each concentration for each compound is tested in a single well;
(§12) 2) compounds are tested at 20, 4, 0.8, 0.16 microgram/ml and additionally in some experiments at 100 and 0.32 microgram/ml;
(§13) 3) samples are pipetted into a 96-well plate for each of the cell lines by a Beckman Biomek 1000 SL robot;
(§14) 4) after fixing with TCA each well is washed with 0.35 ml distilled water twice, not five times;
(§15) 5) after staining with sulforhodamine B each well is washed 3 times, not five times;
(§16) 6) the growth inhibition (I) as % of control, is calculated using the RS-1 data package (BBN Software), for every concentration of drug, as follows: [formula] wherein: T is optical density measurement for treated cells after 48 hours;
(§17) 7) IC50 of growth inhibition is determined graphically from dose response curves, as is known in the art.

[2] = system: A2780/DDP; experiment: Antiproliferative activity in human tumor cell lines (A2780/DDP); assay type: cell-based; conditions: A2780/DDP ovarian tumor cell line
Description: as §1, §2, §3, §4, §5, §6, §7, §8, §9, §10, §11, §12, §13, §14, §15, §16, §17

[3] = system: MIP; experiment: Antiproliferative activity in human tumor cell lines (MIP); assay type: cell-based; conditions: MIP colon tumor cell line
Description: as §1, §2
(§18) All cell lines are maintained in log phase in RPMI 1640 media, supplemented with 5% fetal calf serum, penicillin/streptomycin and 2 mM L-glutamine. Cultures are renewed after 20 passages with cells from a fresh stock of batch-frozen early passage cells. Cell lines are routinely checked for mycoplasma contamination (Genprobe). In a laminar flow hood, cells (1-5×10^4) are plated into 96-well microtiter plates in a volume of 0.1 ml/well with a bulk microtiter dispenser (Denley). […] At this concentration, dimethylsulfoxide has no effect on cell growth. Compounds are added using a Tomtec dispenser which simultaneously dispenses from one 96-well plate, containing the drug dilutions, to the plates containing the cells. After two days of continuous drug exposure, 50% cold trichloroacetic acid (TCA) is added to 10% final concentration to fix the cells, and after 60 minutes at 4° C., the TCA is aspirated and the plates are washed 5 times with deionized water using a microtiter plate washer. The number of cells on the plate are quantitated using a protein dye-binding assay (Monks et al., 1991). A 0.4% solution of the dye, sulforhodamine B, in glacial acetic acid is added to the plates, and the plates are washed 5 times with 1% glacial acetic acid using the automatic plate washed. The bound stain is solubilized with 0.1 ml of 10 mM Tris base. The optical densities are read from an automatic spectrophotometric plate reader (Dynatech) directly to a main frame computer (VAX 8600).
as §4, §5, §6, §7, §8, §9, §10, §11, §12, §13, §14, §15
(§19) 6) the growth inhibition (I) as % of control, is calculated using the RS-1 data package (BBN Software), for every concentration of drug, as follows: [formula] wherein: T is optical density measurement for treated cells after 48 hours; […]

[4] = system: HTB 161; experiment: Antiproliferative activity in human tumor cell lines (HTB 161); assay type: cell-based
Description: as §1, §2, §3, §4, §5, §6, §7, §8, §9, §10, §11, §12, §13, §14, §15, §16, §17

[5] = system: SW620; experiment: Antiproliferative activity in human tumor cell lines (SW620); assay type: cell-based; conditions: SW-620, SW620 colon tumor cell line
Description: as §1, §2, §18, §4, §5, §6, §7, §8, §9, §10, §11, §12, §13, §14, §15, §19

[6] = system: Human Tumor cell lines; experiment: Antiproliferative activity in panel of human tumor cell lines (PROTOCOL 1 and PROTOCOL 2); assay type: cell-based; conditions: for IC50: Homo sapiens, average over the tumor cell lines of Table 3
Description: (§20) The antiproliferative activity of the compounds of Formula I in an Adult Bovine Aortic Endothelial (ABAE) cell line and in Human Tumor cells lines is evaluated in three similar assays that measure growth inhibition. The assays are identified as follows:
as §1, §2, §18, §4, §5, §6, §7, §8, §9, §10, §11, §12, §13, §14
5) after staining with sulforhodamine B each well is washed 3 times, not five times; […]

[7] = system: CACO2; experiment: Antiproliferative activity in human tumor cell lines (CACO2); assay type: cell-based; conditions: Caco-2, CACO2 colon tumor cell line
Description: as §1, §2, §18, §4, §5, §6, §7, §8, §9, §10, §11, §12, §13, §14, §15, §19

[8] = system: Adult Bovine Aortic Endothelial (ABAE) cell line; experiment: Antiproliferative activity in Adult Bovine Aortic Endothelial (ABAE) cell line, PROTOCOL 3; assay type: cell-based; conditions: 4 day assay (Protocol 3)
Description: as §20, §1
Antiproliferative Activity in Adult Bovine Aortic Endothelial (ABAE) Cell Line
ABAE cells are grown in DMEM media (Mediatech Washington, D.C.) supplemented with 10% calf serum (Hyclone). ABAE cells are plated in 24-well dishes at 8,000 cells/well, followed by the addition of increasing concentrations of 7-[substituted amino]-9-[(substituted glycyl)amido]-6-demethyl-6-deoxytetra-cyclines. After four days, the cells are detached and counted. […] The growth inhibition (I) as % of control is calculated as follows: [formula] wherein: Nc is the number of cells in untreated wells;
Nt is the number of cells in treated wells;
No is the number of plated cells.
IC50 of growth inhibition is determined from the sets of I values plotted by Kaleidograph software (Abelbeck Software).
Table 2 presents the results depicting the antiproliferative activity of the compounds of Formula I against an adult bovine aortic endothelial cell line (ABAE), as evaluated by PROTOCOL 1 and PROTOCOL 3. The results are presented in terms of IC50 and are as follows.

[9] = system: angiogenesis; conditions: Cancer Research 51, 672-675, Brem et al; cited from earlier work
[10] = highest concentration, human tumor cell lines

| Compound | IC50 [1] [µg/mL] | IC50 [2] [µg/mL] | IC50 [3] [µg/mL] | IC50 [4] [µg/mL] | IC50 [5] [µg/mL] | IC50 [6] [µg/mL] | IC50 [7] [µg/mL] | cell growth at highest concentration [6, 10] | dead floating cells [6, 10] | inhibition of cell growth ([6]; highest concentrations, 6 human tumor cell lines, FIG. 2) | activity upon incubation with cells [8] | inhibition of angiogenesis vs combination therapy of heparin and cortisone [9] |
| --- | --- | --- | --- | --- | --- | --- | --- | --- | --- | --- | --- | --- |
| CN(C)c1cc(NC(=O)CN2CCCC2)c(O)c2c1CC1CC3[C@H](N(C)C)C(O)=C(C(N)=O)C(=O)[C@@]3(O)C(O)=C1C2=O (stereo partly drawn) [Example 3, [7S-(7α,10aα)]-N-[9-(Aminocarbonyl)-4,7-bis(dimethylamino)-5,5a,6,6a,7,10,10a,12-octahydro-1,8-10a,11-tetrahydroxy-10,12-dioxo-2-naphthacenyl]-1-pyrrolidineacetamide dihydrochloride] | 2.4 | 2.7 | 2.45 | 2.3 | 2.3 | 2.4 | – | – | – | – | – | – |
| CCCN(CCC)c1cc(NC(=O)CN(C)C)c(O)c2c1CC1CC3[C@H](N(C)C)C(O)=C(C(N)=O)C(=O)[C@@]3(O)C(O)=C1C2=O (stereo partly drawn) [Example 6, [4S-(4α,12aα)]-4-(Dimethylamino)-9-[[(dimethylamino)acetyl]amino]-7-(dipropylamino)-1,4,4a,5,5a,6,11,12a-octahydro-3,10,12,12a-tetrahydroxy-1,11-dioxo-2-naphthacenecarboxamide sulfate (1:1)] | 3.5 | 3 | 10 | 3 | 3 | 5.1 | 8 | – | – | – | – | – |
| CCCCN(CC1CC1)c1cc(NC(=O)CN(C)C)c(O)c2c1CC1CC3C(N(C)C)C(O)=C(C(N)=O)C(=O)C3(O)C(O)=C1C2=O (stereo not drawn) [Example 7, 7-[Butyl(cyclopropylmethyl)amino]-4-(dimethylamino)-9 [[(dimethylamino)acetyl]amino]-1,4,4a,5,5a,6,-11,12a-octahydro-3,10,12,12a-tetrahydroxy-1,11-dioxo-2-naphthacenecarboxamide sulfate (1:2)] | 3 | 3 | 8 | 3 | 3.5 | 5.1 | 10 | – | – | – | – | – |
| CC(C)CN(CC(C)C)c1cc(NC(=O)CN(C)C)c(O)c2c1CC1CC3[C@H](N(C)C)C(O)=C(C(N)=O)C(=O)[C@@]3(O)C(O)=C1C2=O (stereo partly drawn) [Example 8, [4S-(4α,12aα)]-7-[Bis(2-methylpropyl)amino]-4-(dimethylamino)9-[[(dimethylamino)acetyl]amino]-1,4,4a,5,5a,6,11,12a-octahydro-3,10,12,12a-tetrahydroxy-1,11-dioxo-2-naphthacenecarboxamide sulfate] | 2.5 | 1.5 | 10 | 2.5 | 1.5 | 4 | 6 | the cells continue to grow | Dead floating cells were not observed | no 100% inhibition of cell growth | – | – |
| CN(C)c1ccc(O)c2c1C[C@H]1C[C@H]3[C@H](N(C)C)C(O)=C(C(N)=O)C(=O)[C@@]3(O)C(O)=C1C2=O [Minocycline, reference compound] | – | – | – | – | – | – | 9 (≈ 19.7 µM) | – | – | – | losing its activity upon incubation with cells | inhibits angiogenesis to an extent comparable to that of the combination therapy of heparin and cortisone |
